In patent US11834430B2, “Compounds useful as inhibitors of isoprenylcysteine carboxyl methyltransferase” (AGENCY FOR SCIENCE, TECHNOLOGY AND RESEARCH, priority 2017, dated 2023):
Several values for one entry are separate records, joined by “and”; a condition that tells them apart may be missing. Equal values may be shown once.

Legend:
human ICMT = human ICMT (Homo sapiens (Human), UniProt O60725); assay: ICMT biochemical assay (Methyltransferase-Glo); conditions: ICMT membrane extract from Sf-9 cells; 30 min preincubation, 90 min reaction
Sequence of human ICMT (O60725 whole entry): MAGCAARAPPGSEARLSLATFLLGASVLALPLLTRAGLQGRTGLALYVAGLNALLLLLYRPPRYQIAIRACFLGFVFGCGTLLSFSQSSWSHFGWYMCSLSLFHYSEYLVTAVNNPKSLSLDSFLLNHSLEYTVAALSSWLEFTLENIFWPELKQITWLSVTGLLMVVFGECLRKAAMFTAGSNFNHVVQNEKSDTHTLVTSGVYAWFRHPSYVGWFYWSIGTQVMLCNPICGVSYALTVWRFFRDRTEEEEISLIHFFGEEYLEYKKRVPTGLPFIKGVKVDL

MIAPaCa-2 cells = assay: Cell proliferation assay (CellTiter-Glo); assay type: cell-based; conditions: Homo sapiens, MIA PaCa-2, 72 h, 3 days
Method: Cell proliferation assay was performed using CellTiter-Glo Luminescent Cell Viability Assay (Promega) following manufacturer's instructions. The MIAPaCa-2 cells (ATCC) were treated with compounds that were serial diluted in the media (DMEM). Plates were incubated for 3 days at 37° C. in 5% CO2. After 3 days, an equal volume of Cell Titer Glo reagent was added. Plates were rocked on a rotator for 2 hours. 100 μL of each well was transferred to a 96-well opaque plate, and luminescence emitted was measured with the Tecan Safire II.

[1] = system: Prelamin A in MIAPaCa-2 cells; assay: Prelamin A accumulation assay (Western blot); assay type: cell-based; conditions: various concentrations, 48 hours
Method: The MIAPaCa-2 cells were seeded in 6-well plates. After seeding for 24 hours, the cells were treated with either DMSO or varying concentration of the compound and incubated for 48 hours. The cells were trypsinized and the lysate was extracted with RIPA buffer (Santa Cruz). The total protein concentration of lysate is quantified using the standard Bradford assay (Biorad protein assay, microplate standard assay).
Western blot analysis was performed using antibody against Prelamin A in MIAPaCa cells treated with compound at various concentration for 48 hours. 15.0 μg of cell lysate was run on a SDS-PAGE and then transferred to nitrocellulose membrane. The membrane was then incubated in blocking buffer [PBS (phosphate buffered saline) with 0.1% Tween 20 and 5% dry milk] at room temperature for 1 hour, followed by incubation with Prelamin A antibody (rat monoclonal antibody) at 1:2500 dilution in PBS, 0.1% Tween 20 and 5% dry milk overnight at 4° C., followed by three washes (15 minutes each wash) in PBS, 0.1% Tween 20 on the next day.
The nitrocellulose membrane was then incubated with secondary antibody solution at room temperature for 1 hour, washed three times before developed with enhanced Chemiluminescence (ECL) mixture (Amersham, Aylesbury, United Kingdom), incubated for 5 minutes and exposed using Fluor Chem E System instrument (Protein Simple).

Cn1nccc1-c1cc(OCCOc2ccc(C#N)cn2)ccn1 [Compound 71, 6-(2-((2-(1-methyl-1H-pyrazol-5-yl)pyridin-4-yl)oxy)ethoxy)nicotinonitrile]
IC50 (human ICMT): 44 nM and 41 nM
GI50 (MIAPaCa-2 cells): 12700 nM
Prelamin A accumulation (Western blot) [1]: Prelamin A accumulation
